Literature values as cited in patent publication US4463171A, “Derivatives of macrolide antibiotics” (Sanraku-Ocean Co., Ltd., priority 1982, dated 1984).

How the values were obtained:
[1] = cited from earlier work
[2] = cited from earlier work; remark: listed apart in the source

CC[C@H]1OC(=O)C[C@@H](O)[C@H](C)[C@@H](O[C@@H]2O[C@H](C)[C@@H](O[C@H]3C[C@@](C)(O)[C@@H](O)[C@H](C)O3)[C@H](N(C)C)[C@H]2O)[C@@H](CC=O)C[C@@H](C)C(=O)/C=C/C(C)=C/[C@@H]1CO[C@@H]1O[C@H](C)[C@@H](O)[C@@H](OC)[C@H]1OC [tylosin]
antibacterial activity in vitro [1]: high antibacterial activity in vitro
absorbability and excretability in vivo [2]: low
